Results taken from patent publication EP0004810B1 (priority 1978, dated 1979).

How the values were obtained:
[1] = system: PI[…]; format: cell-based, Pityrosporum ovale
[2] = system: comédons; design: species or system souris femelles atrichis «rhinocéros»; conditions: in vivo

Row | SMILES | C.M.I. [1] [µg/mL] | D (grand diamètre) [2] | Rapport d/D [2] | d (diamètre de l'orifice) [2]
1 | O=C(OOC(=O)c1cccs1)c1cccs1 [Peroxyde de thénoyle, peroxyde de thénoyle] | 250 | 23,5±1,6 unités arbitraires | 0,90 | 21,1±1,7 unités arbitraires
2 | O=C(OOC(=O)c1ccccc1)c1ccccc1 [Peroxyde de benzoyle, peroxyde de benzoyle, reference compound] |  | 27,0±1,8 unités arbitraires | 0,54 | 14,7±2,1 unités arbitraires
